In general, pEC50 refers to the EC50 on a negative log10 scale, so that one unit is a factor of ten. As a reminder, the solubility is how much of the substance goes into solution per volume.

pEC50: −log10 of the molar value. Where two headings read alike, the source gives them in different places. Marks after values point to notes of the source that are not given here.

These results are taken from US9382245B2, “Compounds and methods for treating HIV infections” (priority 2013, dated 2016).

Series [1] relates to IIIB strain of HIV-1 (wild-type). In words: microbe, parasite or virus in culture. The series is classed as cell-based.
Series [2] can be described thus: Aqueous solubility, shake-flask procedure. Type of series: physicochemical. The settings on record: for solubility at 48 h: Britton-Robinson buffer, 25 °C, pH 6.5, aqueous buffer, thermodynamic from solid. As to the method:
Poor solubility, which has been a problem for many NNRTIs, often leads too low bioavailability, difficulties in formulation, and high dosages.^6,32,33 The issue reflects the hydrophobic nature of the NNRTI binding site. In the design of the catechol diethers, attention was paid to having both good potency and aqueous solubility. In our laboratory, solubilities are measured using a shake-flask procedure.^6,34 The compounds are dissolved in Britton-Robinson buffer and stirred in vials for 48 hours at 25° C. The pH of the buffer solutions is 6.5 as measured by a Corning General Purpose pH Combination probe (4136L21).

For series [3] the following is noted: Table 2, cited from earlier work.
[4] abbreviates: Table 2, pH 6.5, Britton-Robinson buffer, 48 hours at 25° C., read-out: S, aqueous solubility.

Consider `N#Cc1cc2c(Oc3ccccc3OCCn3ccc(=O)[nH]c3=O)cc(Cl)cc2o1` [12c, 6-chloro-4-(2-(2-(2,4-dioxo-3,4-dihydropyrimidin-1(2H)-yl)ethoxy)phenoxy)benzofuran-2-carbonitrile], for which the CC50 in the series with human MT-2 T-cells (human) and in the series “in vitro” (human) was > 100 µM throughout.
For the compound `N#Cc1ccc2c(Oc3ccccc3OCCn3ccc(=O)[nH]c3=O)cc(F)cc2c1` [14k, 5-(2-(2-(2,4-dioxo-3,4-dihydropyrimidin-1(2H)-yl)ethoxy)phenoxy)-7-fluoro-2-naphthonitrile], the CC50 with human MT-2 T-cells (human) and in “in vitro” (human) was > 100 µM throughout.
For the compound `N#Cc1ccc2c(Oc3ccc(Cl)cc3OCCn3ccc(=O)[nH]c3=O)cc(Cl)cc2c1` [14h, 7-chloro-5-(4-chloro-2-(2-(2,4-dioxo-3,4-dihydropyrimidin-1(2H)-yl)ethoxy)phenoxy)-2-naphthonitrile], in the series with human MT-2 T-cells (human), the CC50 worked out at 20 µM.
Same read-out and setting: for `O=c1ccn(CCOc2ccccc2Oc2cccc3cc(Cl)ccc23)c(=O)[nH]1` [14c, 1-(2-(2-((6-chloronaphthalen-1-yl)oxy)phenoxy)ethyl)pyrimidine-2,4(1H,3H)-dione] the value was > 100 µM.
On the same count and under the same terms, for `Cc1ccc2c(Oc3ccccc3OCCn3ccc(=O)[nH]c3=O)cccc2c1` [14b, 1-(2-(2-((6-methylnaphthalen-1-yl)oxy)phenoxy)ethyl)pyrimidine-2,4(1H,3H)-dione] the value was 40 µM.
As to `N#Cc1cc2c(Oc3ccccc3OCCn3ccc(=O)[nH]c3=O)cccc2o1` [12a, 4-(2-(2-(2,4-dioxo-3,4-dihydropyrimidin-1(2H)-yl)ethoxy)phenoxy)benzofuran-2-carbonitrile], the CC50 in the series with human MT-2 T-cells (human) and in “in vitro” (human) was > 100 µM in each case.
On to `N#Cc1cc2c(Oc3ccccc3OCCn3ccc(=O)[nH]c3=O)cccn2c1` [10b, 8-(2-(2-(2,4-dioxo-3,4-dihydropyrimidin-1(2H)-yl)ethoxy)phenoxy)indolizine-2-carbonitrile], for which the CC50 in the series with human MT-2 T-cells (human) and in “in vitro” (human) was > 100 µM each time.
For `N#Cc1cc2cccc(Oc3ccc(F)cc3OCCn3ccc(=O)[nH]c3=O)n2c1` [11a, 5-(2-(2-(2,4-dioxo-3,4-dihydropyrimidin-1(2H)-yl)ethoxy)-4-fluorophenoxy)indolizine-2-carbonitrile], the “fold less active, WT” value in series [1] (11a compared with its isomer 10f) is given as 6 fold. Moreover, in the series “in vitro” (human), the CC50 is > 100 µM.
`O=C1Nc2ccc(Cl)cc2[C@@](C#CC2CC2)(C(F)(F)F)O1` [efavirenz, reference compound]: the pEC50 in series [1] (Human immunodeficiency virus 1, IIIB, MT2, read-out: WT EC50) is 8.70.
In the case of `N#C/C=C/c1cc(Cl)cc(Oc2ccccc2OCCn2ccc(=O)[nH]c2=O)c1` [1c, (E)-3-(3-chloro-5-(2-(2-(2,4-dioxo-3,4-dihydropyrimidin-1(2H)-yl)ethoxy)phenoxy)phenyl)acrylonitrile], the solubility at 48 h in series [2] (setting [4]) was found to be 510 µg/mL; in series [2] (shake-flask, pH 6.5, read-out: aqueous solubility), 510 µg/mL. Also, the CC50 in the series on human MT-2 T-cells (human) was 18 µM.
Regarding `N#Cc1cc2c(Oc3ccc(F)cc3OCCn3ccc(=O)[nH]c3=O)cc(Cl)cn2c1` [10i, 6-chloro-8-(2-(2-(2,4-dioxo-3,4-dihydropyrimidin-1(2H)-yl)ethoxy)-4-fluorophenoxy)indolizine-2-carbonitrile], the CC50 in the series with human MT-2 T-cells (human) was determined as 15 µM.
For `Cc1cc(C#N)cc(C)c1Oc1nc(Nc2ccc(C#N)cc2)nc(N)c1Br` [etravirine], the “S, aqueous solubility” value in series [3] (Ref. 36) was <<1^b μg/mL.
As for `N#Cc1cc2c(Oc3ccccc3OCCn3ccc(=O)[nH]c3=O)cc(F)cn2c1` [10d, 8-(2-(2-(2,4-dioxo-3,4-dihydropyrimidin-1(2H)-yl)ethoxy)phenoxy)-6-fluoroindolizine-2-carbonitrile], the CC50 in the series with human MT-2 T-cells (human) is 40 µM.
Regarding `N#Cc1ccc2c(Oc3ccc(Cl)cc3OCCn3ccc(=O)[nH]c3=O)cccc2c1` [14j, 5-(4-chloro-2-(2-(2,4-dioxo-3,4-dihydropyrimidin-1(2H)-yl)ethoxy)phenoxy)-2-naphthonitrile], the CC50 in the series on human MT-2 T-cells (human) is > 100 µM.
For `N#Cc1ccc2c(Oc3ccc(F)cc3OCCn3ccc(=O)[nH]c3=O)cc(F)cc2c1` [14l, 5-(2-(2-(2,4-dioxo-3,4-dihydropyrimidin-1(2H)-yl)ethoxy)-4-fluorophenoxy)-7-fluoro-2-naphthonitrile], the CC50 in the series with human MT-2 T-cells (human) and in “in vitro” (human) was > 100 µM throughout.
Turning to `N#Cc1ccc2c(Oc3ccc(F)cc3OCCn3ccc(=O)[nH]c3=O)cccc2c1` [14i, 5-(2-(2-(2,4-dioxo-3,4-dihydropyrimidin-1(2H)-yl)ethoxy)-4-fluorophenoxy)-2-naphthonitrile], the CC50 in the series on human MT-2 T-cells (human) and in the series “in vitro” (human) was > 100 µM each time.
Take `Cc1ccnc2c1NC(=O)c1cccnc1N2C1CC1` [nevirapine, reference compound]: the CC50 is > 100 µM in the series on human MT-2 T-cells (Table 3, 50% inhibition of MT-2 cell growth); > 100 µM in the series with human MT-2 T-cells (Table 4, 50% inhibition of MT-2 cell growth); > 100 µM in the series “in vitro”. Moreover, the “S, aqueous solubility” value in series [3] (Ref. 35) is reported as 167^a μg/mL.
On to `O=c1ccn(CCOc2ccccc2Oc2cc(Cl)cc3cc(Cl)ccc23)c(=O)[nH]1` [14d, 1-(2-(2-((3,6-dichloronaphthalen-1-yl)oxy)phenoxy)ethyl)pyrimidine-2,4(1H,3H)-dione], for which, in the series with human MT-2 T-cells (human), the CC50 was determined as 45 µM.
Take `N#Cc1cc2c(Oc3cc(F)c(F)cc3OCCn3ccc(=O)[nH]c3=O)cccn2c1` [10k, 8-(2-(2-(2,4-dioxo-3,4-dihydropyrimidin-1(2H)-yl)ethoxy)-4,5-difluorophenoxy)indolizine-2-carbonitrile]: the CC50 in the series “in vitro” (human) was 19 µM.
With `N#Cc1cc2c(Oc3ccc(F)cc3OCCn3ccc(=O)[nH]c3=O)cccc2o1` [12d, 4-(2-(2-(2,4-dioxo-3,4-dihydropyrimidin-1(2H)-yl)ethoxy)-4-fluorophenoxy)benzofuran-2-carbonitrile], the CC50 in the series with human MT-2 T-cells (human) and in “in vitro” (human) was > 100 µM in each case.
As to `O=c1ccn(CCOc2ccccc2Oc2cccc3ccccc23)c(=O)[nH]1` [14a, 1-(2-(2-(naphthalen-1-yloxy)phenoxy)ethyl)pyrimidine-2,4(1H,3H)-dione], in series [1] (14a compared with 14e), the “fold less active, WT” value was determined as 100 fold. The same compound yielded a CC50 in the series with human MT-2 T-cells (human) of 80 µM.
The compound `N#Cc1ccc2c(Oc3ccc(F)cc3OCCn3ccc(=O)[nH]c3=O)cc(Cl)cc2c1` [14g, 7-chloro-5-(2-(2-(2,4-dioxo-3,4-dihydropyrimidin-1(2H)-yl)ethoxy)-4-fluorophenoxy)-2-naphthonitrile] gave a CC50 with human MT-2 T-cells (human) of 16 µM.
Same read-out and setting: for `N#Cc1ccc2c(Oc3ccccc3OCCn3ccc(=O)[nH]c3=O)cc(Cl)cc2c1` [14f, 7-chloro-5-(2-(2-(2,4-dioxo-3,4-dihydropyrimidin-1(2H)-yl)ethoxy)phenoxy)-2-naphthonitrile] the value was 24 µM.
`N#Cc1cc2c(Oc3ccc(Cl)cc3OCCn3ccc(=O)[nH]c3=O)cc(Cl)cn2c1` [10n, 6-chloro-8-(4-chloro-2-(2-(2,4-dioxo-3,4-dihydropyrimidin-1(2H)-yl)ethoxy)phenoxy)indolizine-2-carbonitrile]: in “in vitro” (human), the CC50 amounted to 20 µM.
In the case of `N#Cc1ccc2c(Oc3ccc(Cl)cc3OCCn3ccc(=O)[nH]c3=O)cc(F)cc2c1` [14m, 5-(4-chloro-2-(2-(2,4-dioxo-3,4-dihydropyrimidin-1(2H)-yl)ethoxy)phenoxy)-7-fluoro-2-naphthonitrile], the CC50 with human MT-2 T-cells (human) was found to be 18 µM.
As to `N#Cc1ccc2c(Oc3ccccc3OCCn3ccc(=O)[nH]c3=O)cccc2c1` [14e, 5-(2-(2-(2,4-dioxo-3,4-dihydropyrimidin-1(2H)-yl)ethoxy)phenoxy)-2-naphthonitrile], the fold less soluble in series [2] (14e compared with indolizine 10b) worked out at 10 fold. Moreover, in series [2] (14e over etravirine and rilpivirine), the “fold improvement in solubility” value is listed as “ca. 40 fold”. The solubility at 48 h in series [2] (setting [4]) was 4.3 µg/mL. The CC50 with human MT-2 T-cells (human) and in the series “in vitro” (human) was > 100 µM in each case.
For `Cc1cc2c(Oc3ccccc3OCCn3ccc(=O)[nH]c3=O)cccn2c1` [10a, 1-(2-(2-((2-methylindolizin-8-yl)oxy)phenoxy)ethyl)pyrimidine-2,4(1H,3H)-dione], the CC50 in “in vitro” (human) came out at 9 µM.
Still for that read-out and setting: in the case of `O=c1ccn(CCOc2ccccc2Oc2cccc3[nH]ccc23)c(=O)[nH]1` [8a, 1-(2-(2-((1H-indol-4-yl)oxy)phenoxy)ethyl)pyrimidine-2,4(1H,3H)-dione] it was 53 µM.
